Results published in US5481013A, “Carboxylic acid derivatives” (Ciba-Geigy Corporation, priority 1992, dated 1996).

Legend:
Format in all cases: in vivo
Heliothis virescens = assay: Ovicidal/larvicidal activity on Heliothis virescens; conditions: 192 h, 400 ppm spray on eggs deposited on cotton, evaluated after 8 days, read-out: % reduction in population (hatching percentage of eggs and survival rate of caterpillars)
Experimental: Heliothis eggs which have been deposited on cotton are sprayed with a spray mixture prepared with an aqueous emulsion and comprising 400 ppm of the active ingredient. After 8 days, the hatching percentage of the eggs and the survival rate of the caterpillars are evaluated by comparing them with untreated control batches (% reduction in population).

Tetranychus urticae = assay: Activity against Tetranychus urticae; conditions: 144 h, 400 ppm spray on young bean plants, mixed population, 6 days at 25° C, read-out: percentage reduction in population (% activity)
Experimental: Young bean plants are populated with a mixed population of Tetranychus urticae and, after 1 day, sprayed with a spray mixture prepared with an aqueous emulsion and comprising 400 ppm of the active ingredient. The plants are subsequently incubated for 6 days at 25° C and then evaluated. The percentage reduction in population (% activity) is determined by comparing the number of dead eggs, larvae and adults on the treated plants with those on the untreated ones.

Nilaparvata lugens = assay: Systemic activity against Nilaparvata lugens; conditions: 144 h, pots with rice plants in 400 ppm aqueous emulsion solution, larvae in stages 2 and 3, evaluated 6 days later, read-out: percentage reduction in population (% activity)
Experimental: (§1) Pots containing rice plants are placed into an aqueous emulsion solution comprising 400 ppm of the active ingredient. The rice plants are subsequently populated with larvae in stages 2 and 3. The test is evaluated 6 days later. The percentage reduction in population (% activity) is determined by comparing the numbers of plant hoppers on the treated plants with those on the untreated plants.

Aphis craccivora = assay: Activity against Aphis craccivora; conditions: 400 ppm spray on pea seedlings, 20° C., evaluated after 3 and 6 days, read-out: percentage reduction in population (% activity)
Experimental: Pea seedlings are infected with Aphis craccivora, subsequently sprayed with a spray mixture comprising 400 ppm of the active ingredient, and incubated at 20° C. The test is evaluated after 3 and 6 days. The percentage reduction in population (% activity) is determined by comparing the number of dead aphids on the treated plants with those on the untreated plants.

Nephotettix cincticeps [1] = assay: Activity against Nephotettix cincticeps (spray on rice plants); conditions: 504 h, 400 ppm spray on rice plants, larvae in stages 2 and 3, evaluated 21 days later, read-out: percentage reduction in population (% activity)
Experimental: Rice plants are treated with a spray mixture prepared with an aqueous emulsion and comprising 400 ppm of the active ingredient. After the spray coating has dried on, the rice plants are populated with leaf hopper larvae in stages 2 and 3. The test is evaluated 21 days later. The percentage reduction in population (% activity) is determined by comparing the number of surviving leaf hoppers on the treated plants with those on the untreated plants.

[2] = test system: Crocidolomia binotalis caterpillars; assay: Activity against Crocidolomia binotalis caterpillars; conditions: Brassica oleracea, 72 h; 400 ppm spray on young cabbage plants, third larval stage, evaluated after 3 days; read-out: percentage reduction in population or in feeding damage (% activity)
Experimental: (§2) Young cabbage plants are sprayed with a spray mixture prepared with an aqueous emulsion and comprising 400 ppm of the active ingredient. After the spray coating has dried on, the cabbage plants are infested with 10 Crocidolomia binotalis in the third larval stage and placed into a plastic container. The test is evaluated after 3 days. The percentage reduction in population, or the percentage reduction in feeding damage (% activity), is determined by comparing the number of dead caterpillars and the feeding damage on the treated plants with those on the untreated plants.

[3] = test system: Panonychus ulmi (OP- and carb.- resistant); assay: Activity against Panonychus ulmi (OP- and carb.- resistant); conditions: 336 h, 400 ppm spray on apple seedlings, evaluated after 14 days, read-out: percentage reduction in population (% activity)
Experimental: Apple seedlings are populated with adult females of Panonychus ulmi. After seven days, the infested plants are sprayed to drip point with an aqueous emulsion comprising 400 ppm of the test compound and grown in the greenhouse. The test is evaluated after 14 days. The percentage reduction in population (% activity) is determined by comparing the number of dead spider mites on the treated plants with those on the untreated plants. […] An activity of over 80% is shown, in particular, by compound Nos. 1.01, 2.01, 2.07, 2.08, 2.10, 2.12 to 2.16, 2.22, 2.23, 2.26, 3.01, 4.01, 4.02, 4.06, 5.01 to 5.03, 5.05, 5.06, 5.08, 5.10, 5.11, 5.15, 5.16 and 5.20 to 5.25.

Nephotettix cincticeps [4] = assay: Systemic activity against Nephotettix cincticeps; conditions: 144 h, pots with rice plants in 400 ppm aqueous emulsion solution, larvae in stages 2 and 3, evaluated after 6 days, read-out: percentage reduction in population (% activity)
Experimental: as §1, with “evaluated after” for “evaluated”, “6 days.” for “6 days later.”, “the number” for “the numbers”, “of leaf” for “of plant”

[5] = test system: Heliothis virescens caterpillars; assay: Activity against Heliothis virescens caterpillars; conditions: 144 h, 400 ppm spray on young soybean plants, first larval stage, evaluated after 6 days, read-out: percentage reduction in population or in feeding damage (% activity)
Experimental: as §2, with “soybean” for “cabbage”, “populated” for “infested”, “Heliothis virescens” for “Crocidolomia binotalis”, “first” for “third”, “6” for “3”

adult Anthonomus grandis = assay: Activity against adult Anthonomus grandis; conditions: 72 h, 400 ppm spray on young cotton plants, adults, evaluated after 3 days, read-out: percentage reduction in population or in feeding damage (% activity)
Experimental: as §2, with “cotton” for “cabbage”, “populated” for “infested”, “adult Anthonomus grandis” for “Crocidolomia binotalis in the third larval stage”, “beetles” for “caterpillars”

O=C(CC=C(F)F)OCCOc1ccc(Oc2ccccc2)cc1 [Compound 1.01, 2-(4-phenoxyphenoxy)ethyl-4,4-difluorobut-3-enoate]
> 80%: pest or weed control at 400 ppm (Heliothis virescens) | activity at 400 ppm (Tetranychus urticae) | activity at 400 ppm (Nilaparvata lugens) | activity at 400 ppm (Aphis craccivora) | activity at 400 ppm (Nephotettix cincticeps [1]) | activity at 400 ppm [2] | activity at 400 ppm [3] | activity at 400 ppm (Nephotettix cincticeps [4]) | activity at 400 ppm [5] | activity at 400 ppm (adult Anthonomus grandis)

O=C(CCCCCC=C(F)F)OCCOc1ccc(Oc2ccccc2)cc1 [Compound 3.01]
> 80%: pest or weed control at 400 ppm (Heliothis virescens) | activity at 400 ppm (Tetranychus urticae) | activity at 400 ppm (Nilaparvata lugens) | activity at 400 ppm (Aphis craccivora) | activity at 400 ppm (Nephotettix cincticeps [1]) | activity at 400 ppm [2] | activity at 400 ppm [3] | activity at 400 ppm (Nephotettix cincticeps [4]) | activity at 400 ppm [5] | activity at 400 ppm (adult Anthonomus grandis)
